Data: US9023821B2, “Use of MicroRNA for treating diseases associated with a dysfunction of the cilia in multiciliated epithelial cells” (Centre National de la Recherche Scientifique, priority 2009, dated 2015)

Legend:
[1] = test system: human airway epithelial cells (HAECs); test: High-throughput sequencing (HTS) of miRNAs at four stages of differentiation of HAECs; settings: for Modulation (ratio of the level of intensity of expression in log2 in two stages of differentiation) measured by high-throughput sequencing, D7 − D0 / Modulation (ratio of the level of intensity of expression in log2 in two stages of differentiation) measured by high-throughput sequencing, FC − D7 / Modulation (ratio of the level of intensity of expression in log2 in two stages of differentiation) measured by high-throughput sequencing, WD − D0 / Modulation (ratio of the level of intensity of expression in log2 in two stages of differentiation) measured by high-throughput sequencing, WD − FC / Level of intensity of expression in log2 measured by high-throughput sequencing, D0 / Level of intensity of expression in log2 measured by high-throughput sequencing, D7 / Level of intensity of expression in log2 measured by high-throughput sequencing, FC / Level of intensity of expression in log2 measured by high-throughput sequencing, WD: Table VI; for Level of intensity of expression in log2 At the differentiated stage (WD) measured in HTS: healthy human airway epithelial tissue; for Level of intensity of expression in log2 measured by high-throughput sequencing, D0: stage D0; for Level of intensity of expression in log2 measured by high-throughput sequencing, D7: stage D7; for Level of intensity of expression in log2 measured by high-throughput sequencing, FC: stage FC; for Level of intensity of expression in log2 At the differentiated stage (WD) measured in HTS / Level of intensity of expression in log2 measured by high-throughput sequencing, WD: stage WD; for Modulation (ratio of the level of intensity of expression in log2 in two stages of differentiation), D7 − D0 / Modulation (ratio of the level of intensity of expression in log2 in two stages of differentiation), FC − D7 / Modulation (ratio of the level of intensity of expression in log2 in two stages of differentiation), WD − FC / Abundance (%), D0 / Abundance (%), D7 / Abundance (%), FC / Abundance (%), WD: HTS; for Abundance (%), D0: ALI-D0; for Abundance (%), D7: ALI-D7; for Abundance (%), FC: ALI-FC; for Abundance (%), WD: ALI-WD
Outline: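 Differentiation time course at air-liquid interface: 0, 7, ~14 (first cilia) and ~21 days (fully differentiated). Sequencing counts per strand were normalized to 10^6 sequences and analysed by linear model with empirical Bayesian moderation.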

[2] = test system: human airway epithelial cells (HAECs); test: Agilent miRNA chips, miRNA expression at four stages of differentiation of HAECs; settings: for Modulation (ratio of the level of intensity of expression in log2 in two stages of differentiation) measured with the Agilent chips, D7 − D0 / Modulation (ratio of the level of intensity of expression in log2 in two stages of differentiation) measured with the Agilent chips, FC − D7 / Modulation (ratio of the level of intensity of expression in log2 in two stages of differentiation) measured with the Agilent chips, WD − D0 / Modulation (ratio of the level of intensity of expression in log2 in two stages of differentiation) measured with the Agilent chips, WD − FC / Level of intensity of expression in log2 measured with the Agilent chips, D0 / Level of intensity of expression in log2 measured with the Agilent chips, D7 / Level of intensity of expression in log2 measured with the Agilent chips, FC / Level of intensity of expression in log2 measured with the Agilent chips, WD: Table VI; for Modulation (ratio of the level of intensity of expression in log2 at two stages of differentiation), FC − D7 / Modulation (ratio of the level of intensity of expression in log2 at two stages of differentiation), WD − FC: Agilent miRNA chips, Table V; for Level of intensity of expression in log2 measured with the Agilent chips, D0: stage D0; for Level of intensity of expression in log2 measured with the Agilent chips, D7: stage D7; for Level of intensity of expression in log2 measured with the Agilent chips, FC: stage FC; for Level of intensity of expression in log2 measured with the Agilent chips, WD: stage WD
Outline: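 Patient RNA samples, the same ones analysed by high-throughput sequencing, were first labelled, then hybridized onto arrays carrying 866 human and 89 human viral miRNAs (miRBase v.12.0), following the supplied labelling and hybridization protocol.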

[3] = test system: basal cells and pyramidal cells of the airway epithelium; test: miRNA expression in sorted basal cells versus pyramidal cells (ciliated + secretory), HTS and Agilent chips; design: species or system human; settings: for Modulation of expression of the miRNAs in pyramidal cells (323(−)) relative to basal cells 323(+): HTS and Agilent chips; for Intensity of the level of expression in log2 in pyramidal cells (323(−)): pyramidal cells (ciliated + secretory)
Outline: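 Sorted basal versus ciliated/mucus-secreting cells; markers CD151 and tissue factor; donors n=3; miRNA by Agilent chip or HTS.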

Substance	Modulation (ratio of the level of intensity of expression in log2 in two stages of differentiation) measured by high-throughput sequencing, D7 − D0 [1]	Modulation (ratio of the level of intensity of expression in log2 in two stages of differentiation) measured by high-throughput sequencing, FC − D7 [1]	Modulation (ratio of the level of intensity of expression in log2 in two stages of differentiation) measured by high-throughput sequencing, WD − D0 [1]	Modulation (ratio of the level of intensity of expression in log2 in two stages of differentiation) measured by high-throughput sequencing, WD − FC [1]	Level of intensity of expression in log2 At the differentiated stage (WD) measured in HTS [1]	Level of intensity of expression in log2 measured by high-throughput sequencing, D0 [1]	Level of intensity of expression in log2 measured by high-throughput sequencing, D7 [1]	Level of intensity of expression in log2 measured by high-throughput sequencing, FC [1]	Level of intensity of expression in log2 measured by high-throughput sequencing, WD [1]	Modulation (ratio of the level of intensity of expression in log2 in two stages of differentiation) measured with the Agilent chips, D7 − D0 [2]	Modulation (ratio of the level of intensity of expression in log2 in two stages of differentiation) measured with the Agilent chips, FC − D7 [2]	Modulation (ratio of the level of intensity of expression in log2 in two stages of differentiation) measured with the Agilent chips, WD − D0 [2]	Modulation (ratio of the level of intensity of expression in log2 in two stages of differentiation) measured with the Agilent chips, WD − FC [2]	Level of intensity of expression in log2 measured with the Agilent chips, D0 [2]	Level of intensity of expression in log2 measured with the Agilent chips, D7 [2]	Level of intensity of expression in log2 measured with the Agilent chips, FC [2]	Level of intensity of expression in log2 measured with the Agilent chips, WD [2]	Modulation of expression of the miRNAs in pyramidal cells (323(−)) relative to basal cells 323(+) [3]	Intensity of the level of expression in log2 in basal cells (323(+)) [3]	Intensity of the level of expression in log2 in pyramidal cells (323(−)) [3]	other results
hsa-miR-34a: human miRNA, SEQ ID No. 38 (UGGCAGUGUCUUAGCUGGUUGU; expressed or natural sequence; listed as Homo sapiens)	1.46 log2	−1.04 log2	0.88 log2	0.45 log2	13.75 log2	10.31 log2	11.77 log2	10.73 log2	11.18 log2	2.31 log2	−0.54 log2	1.91 log2	0.13 log2	8.58 log2	10.89 log2	10.35 log2	10.49 log2	0.64	6.72 log2	7.36 log2	Modulation (ratio of the level of intensity of expression in log2 at two stages of differentiation), FC − D7 [2]: −0.54 log2; Modulation (ratio of the level of intensity of expression in log2 at two stages of differentiation), WD − FC [2]: 0.13 log2
hsa-miR-34c-5p: human miRNA, SEQ ID No. 40 (AGGCAGUGUAGUUAGCUGAUUGC; expressed or natural sequence; listed as Homo sapiens)	1.33 log2	4.02 log2	6.41 log2	1.06 log2	0.01 log2	7.88 log2	9.21 log2	13.23 log2	14.29 log2	2.35 log2	4.27 log2	7.44 log2	0.82 log2	3.94 log2	6.29 log2	10.56 log2	11.39 log2	5.74	4.75 log2	10.49 log2	Modulation (ratio of the level of intensity of expression in log2 in two stages of differentiation), D7 − D0 [1]: 1.33 log2; Modulation (ratio of the level of intensity of expression in log2 in two stages of differentiation), FC − D7 [1]: 4.02 log2; Modulation (ratio of the level of intensity of expression in log2 in two stages of differentiation), WD − FC [1]: 1.06 log2; Abundance (%), D0 [1]: 0.05%; Abundance (%), D7 [1]: 0.13%; Abundance (%), FC [1]: 2.05%; Abundance (%), WD [1]: 3.23%; Modulation (ratio of the level of intensity of expression in log2 at two stages of differentiation), FC − D7 [2]: 4.27 log2; Modulation (ratio of the level of intensity of expression in log2 at two stages of differentiation), WD − FC [2]: 0.82 log2
hsa-miR-92b: human miRNA, SEQ ID No. 49 (UAUUGCACUCGUCCCGGCCUCC; expressed or natural sequence; listed as Homo sapiens)	1.21 log2	4.12 log2	5.93 log2	0.60 log2	0.01 log2	7.49 log2	8.70 log2	12.82 log2	13.42 log2	0.48 log2	4.21 log2	4.39 log2	−0.29 log2	0.10 log2	0.57 log2	4.78 log2	4.49 log2	1.67	0.40 log2	2.07 log2	Modulation (ratio of the level of intensity of expression in log2 in two stages of differentiation), D7 − D0 [1]: 1.21 log2; Modulation (ratio of the level of intensity of expression in log2 in two stages of differentiation), FC − D7 [1]: 4.12 log2; Modulation (ratio of the level of intensity of expression in log2 in two stages of differentiation), WD − FC [1]: 0.60 log2; Abundance (%), D0 [1]: 0.04%; Abundance (%), D7 [1]: 0.09%; Abundance (%), FC [1]: 1.54%; Abundance (%), WD [1]: 1.77%
hsa-miR-96: human miRNA, SEQ ID No. 51 (UUUGGCACUAGCACAUUUUUGCU; expressed or natural sequence; listed as Homo sapiens)	−0.08 log2	−0.71 log2	0.02 log2	0.81 log2	12.65 log2	5.41 log2	5.33 log2	4.62 log2	5.43 log2	1.19 log2	−0.50 log2	0.64 log2	−0.04 log2	8.52 log2	9.71 log2	9.21 log2	9.16 log2	−1.51	6.81 log2	5.30 log2	Modulation (ratio of the level of intensity of expression in log2 at two stages of differentiation), FC − D7 [2]: −0.50 log2; Modulation (ratio of the level of intensity of expression in log2 at two stages of differentiation), WD − FC [2]: −0.04 log2
